Measurements: patent publication US20240139223A1, “SOY ISOFLAVONES FOR ASTHMA PREVENTION” (University of South Florida, priority 2021, published 2024)

Assays:
[1] = tested on: human rhinovirus (HRV); settings: compared with guideline-driven care alone; cited from earlier work
[2] = tested on: pDCs; settings: cited from earlier work
[3] = tested on: murine model of asthma (BALB/c mice); assay: Airway hyperresponsiveness (total respiratory system resistance, FlexiVent) in OVA murine model of asthma; assay type: in vivo, mouse; settings: summary
Method: Eight-week-old BALB/c mice were purchased from The Jackson Lab and housed in standard laboratory conditions (12/12-h light/dark cycle, 22-24° C., 40-60% humidity). Forty female mice were divided into four groups (namely, OVA+Veh, OVA+Bio300, PBS+Veh, PBS+Bio300). Genistein (Bio300, Humanetics Corp.) was administered to two of the groups in conjunction with either OVA or PBS. The mice in each group (n=10) were equally divided into two cages (5 mice/cage) to provide appropriate space for the mice. […]
From Day 14 to Day 28, the OVA+Bio300 and PBS+Bio300 groups received Bio300 (100 ul) by oral gavage every other day. […] On Day 29, airway hyperresponsiveness (AHR) was assessed and tissues were obtained for further analysis.
All mice were anesthetized with ketamine, tracheostomized, and mechanically ventilated with a FlexiVent system (SCIREQ, Flexivent, Scireq Inc., Montreal, Canada) as described in Choi et al., incorporated by reference in its entirety herein. […] Volume changes due to thoracic expansion and alterations in tracheal pressure were measured in response to challenges with increasing concentrations of methacholine (3, 6, 12, 25, and 50 mg/mL) and reported as total respiratory system resistance (Rrs).

[4] = tested on: PAI-1 production in normal human bronchial epithelial (NHBE) cells; assay: TGF-β1-induced PAI-1 gene expression and protein production in NHBE cells (real-time PCR, ELISA); assay type: cell-based; settings: for TGF-β1-induced PAI-1 protein production: 6 hours, NHBE
Method: Normal human bronchial epithelial (NHBE) cells were cultured, as previously described in Cho S H, Lee S H, Kato A, Takabayashi T, Kulka M, Shin S C, et al. Cross-talk between human mast cells and bronchial epithelial cells in plasminogen activator inhibitor-1 production via transforming growth factor-b1. Am J Respir Cell Mol Biol 2015; 52:88-95, herein incorporated by reference in its entirety into this disclosure. […] Cell pellets were used for real-time PCR, and cell-culture supernatants were used for PAI-1 protein ELISA.
The PAI-1 concentration in the blood of subjects and supernatants of NHBE cells was measured in duplicate by means of ELISA (Assay Pro, St Charles, Mo), as previously described in Cho et al. 2015, herein incorporated by reference in its entirety into this disclosure. For mRNA analysis of PAI-1 (Hs00167155_m1), quantitative real-time PCR was performed with the ViiA 7 Real-Time PCR System (Applied Biosystems, Foster City, Calif). Expression of glyceraldehyde-3-phosphate dehydrogenase (GAPDH; Hs02786624_g1) was used as an internal control for normalization. Cycling conditions were as follows: 50° C. for 2 minutes (hold) for 1 cycle, 95° C. for 10 minutes (hold) for 1 cycle, and 95° C. for 15 seconds and 60° C. for 1 minute (cycling) for 40 cycles. Relative gene expression was calculated by using the comparative 2^−ΔΔCT method.
To investigate the cellular mechanism of the soy isoflavone/PAI-1 link, the inventors treated cultured NHBE cells with TGF-β1 (2 ng/mL) for 6 hours with and without genistein pretreatment. There was a significant increase in PAI-1 mRNA and protein production (about 10-fold) after adding TGF-β1 (FIG. 1). […] Soy isoflavones reduce asthma exacerbation in high PAI-1 producing genotype. (FIG. 2)
There was a significant increase of the PAI-1 mRNA and protein production (about 10-fold) after adding the TGF-β1 (FIG. 5).

For “omalizumab: costly biological agent blocking IgE, administered by injection”, which “Duration of HRV infections, viral shedding, and risk of HRV-related illness” value [1] is on record?
The value was “decreased”.

What about the “Interferon alpha production from pDCs” value ([2]; ex vivo and in vivo treatment) of the same compound?
Its value is “restored”.

What about the “Reduction of FcεRIα expression on pDCs” value ([2]; omalizumab treatment, previous study) of the same compound?
The value was “about 57%”.

For O=c1c(-c2ccc(O)cc2)coc2cc(O)cc(O)c12 [genistein], which “Allergic inflammation and airway hyperreactivity” value [3] is on record?
Its value is “reduced allergic inflammation and improved airway hyperreactivity”.

And the “PAI-1 production from human bronchial EC and mast cells” value ([4]; FIG. 5 legend)?
The value was “significantly reduces”.

And the “TGF-β1-induced PAI-1 gene expression and protein production” value ([4]; NHBE cells, genistein pretreatment)?
The value was “significantly reduced”.

And the “TGF-β1-induced PAI-1 protein production” value ([4]; genistein 1 μM pretreatment, TGF-β1 2 ng/ml)?
Its value is 360700 ± 10500 pg/mL.

And the “TGF-β1-induced PAI-1 protein production” value ([4]; genistein 5 μM pretreatment, TGF-β1 2 ng/ml)?
Its value is 306.0 ± 5.3 pg/mL.

What about the “TGF-β1-induced PAI-1 protein production” value ([4]; genistein 5 mmol/L pretreatment, TGF-β1 2 ng/mL) of the same compound?
The value was 306.0 ± 5.3 pg/mL.

For “TGF-β1: recombinant human TGF-β1 (R&D Systems), stimulus of PAI-1 production [reference compound]”, which “Increase in PAI-1 mRNA and protein production” value ([4]; NHBE cells, TGF-β1 2 ng/mL for 6 hours) is on record?
The value was “about 10 fold”.
